According to ChEMBL document CHEMBL1143069, “Methoxylation of 3',4'-aromatic side chains improves P-glycoprotein inhibitory and multidrug resistance reversal activities of 7,8-pyranocoumarin against cancer cells” (Bioorg Med Chem, 2008):
Active and inactive are the calls of the source. No cut-off for these calls is given here.

Legend:
K562 [1] = conditions: Homo sapiens
K562 [2] = conditions: Homo sapiens; remark: listed apart in the source
K562 [3] = conditions: Homo sapiens; remark: listed apart in the source
HepG2 [4] = experiment: Growth inhibition of doxorubicin resistant human HepG2 cells after 72 hrs by MTT assay; type: functional, cell-based; conditions: HepG2, 72 h
HepG2 [5] = experiment: Growth inhibition of human HepG2 cells after 72 hrs by MTT assay; type: functional, cell-based; conditions: HepG2, 72 h
K562 [6] = experiment: Growth inhibition of human K562 cells after 72 hrs by SRB assay; type: functional, cell-based; conditions: K562, 72 h
K562 [7] = experiment: Growth inhibition of doxorubicin-resistant human K562 cells after 72 hrs by SRB assay; type: functional, cell-based; conditions: K562, 72 h
K562 [8] = experiment: Inhibition of Pgp mediated Hoechst 33342 efflux in doxorubicin-resistant human K562 cells assessed as increase in cellular fluorescence of substrate at 5 uM; type: cell-based; parameters: scale not given: the % may be the effect or the level left
K562 [9] = experiment: Effect on Pgp expression level in doxorubicin resistant human K562 cells at 8 uM after 72 hrs by Western blot; type: functional, cell-based
HepG2 [10] = experiment: Inhibition of Pgp mediated Hoechst 33342 efflux in doxorubicin-resistant human HepG2 cells assessed as increase in cellular fluorescence of substrate at 5 uM; type: cell-based; parameters: scale not given: the % may be the effect or the level left
KB-V1 [11] = experiment: Effect on Pgp expression level in human KB V1 cells at 4 uM after 72 hrs by Western blot; type: functional, cell-based
KB-V1 [12] = experiment: Effect on Pgp expression level in human KB V1 cells at 20 uM after 72 hrs by Western blot; type: functional, cell-based
HepG2 [13] = experiment: Effect on Pgp expression level in doxorubicin resistant human HepG2 cells at 20 uM after 72 hrs by Western blot; type: functional, cell-based
HepG2 [14] = experiment: Effect on Pgp expression level in doxorubicin resistant human HepG2 cells at 8 uM after 72 hrs by Western blot; type: functional, cell-based
K562 [15] = experiment: Inhibition of human Pgp-ATPase activity in doxorubicin-resistant K562 cells; type: cell-based
K562 [16] = experiment: Effect on Pgp expression level in doxorubicin resistant human K562 cells at 4 uM after 72 hrs by Western blot; type: functional, cell-based
HepG2 [17] = experiment: Increase in monoclonal antibody UIC2 binding to human Pgp in doxorubicin-resistant human HepG2 cells; type: cell-based
[18] = Growth inhibition of human KB3-1 cells after 72 hrs by MTT assay; type: functional, cell-based; conditions: KB 3-1, 72 h
HepG2 [19] = experiment: Effect on Pgp expression level in doxorubicin resistant human HepG2 cells at 4 uM after 72 hrs by Western blot; type: functional, cell-based
[20] = Growth inhibition of human KB V1 cells after 72 hrs by MTT assay; type: functional, cell-based; conditions: KB-V1, 72 h
K562 [21] = experiment: Effect on Pgp expression level in doxorubicin resistant human K562 cells at 20 uM after 72 hrs by Western blot; type: functional, cell-based
K562 [22] = experiment: Inhibition of Pgp mediated Hoechst 33342 efflux in doxorubicin-resistant human K562 cells assessed as increase in cellular fluorescence of substrate at 10 uM; type: cell-based; parameters: scale not given: the % may be the effect or the level left
HepG2 [23] = experiment: Inhibition of Pgp mediated Rh123 efflux in doxorubicin-resistant human HepG2 cells assessed as increase in cellular fluorescence of substrate at 10 uM; type: cell-based; parameters: scale not given: the % may be the effect or the level left
HepG2 [24] = experiment: Inhibition of Pgp mediated Hoechst 33342 efflux in doxorubicin-resistant human HepG2 cells assessed as increase in cellular fluorescence of substrate at 10 uM; type: cell-based; parameters: scale not given: the % may be the effect or the level left
K562 [25] = experiment: Inhibition of Pgp mediated Rh123 efflux in doxorubicin-resistant human K562 cells assessed as increase in cellular fluorescence of substrate at 10 uM; type: cell-based; parameters: scale not given: the % may be the effect or the level left

For CC(=O)[C@H]1CC[C@H]2[C@@H]3CCC4=CC(=O)CC[C@]4(C)[C@H]3CC[C@]12C, the Km (K562 [1]) was 9.97 µM and the Km (K562 [2]) was 6.57 µM.
Compound COc1ccc(CCN(C)CCC[C@](C#N)(c2ccc(OC)c(OC)c2)C(C)C)cc1OC has a Km (K562 [1]) of 0.7 µM and a Km (K562 [3]) of 0.89 µM.
COc1ccc(/C=C/C(=O)OC2c3c(ccc4ccc(=O)oc34)OC(C)(C)C2OC(=O)/C=C/c2ccc(OC)cc2)cc1 (racemic) gave an IC50 (HepG2 [4]) of 72.6 µM, an IC50 (HepG2 [5]) of 55200 nM and an IC50 (K562 [6]) of 67.6 µM. It also gave an IC50 (K562 [7]) of 81 µM.
Compound COc1ccc(/C=C/C(=O)OC2c3c(ccc4ccc(=O)oc34)OC(C)(C)C2OC(=O)/C=C/c2ccc(OC)c(OC)c2)cc1OC (racemic) has an Activity (K562 [8]) of 200%, an IC50 (HepG2 [4]) of 76.3 µM and an IC50 (HepG2 [5]) of 54700 nM. The Activity (K562 [9]) was “inactive”, the Activity (HepG2 [10]) was 200% and the Activity (KB-V1 [11]) was “inactive”. The IC50 (K562 [6]) was 54.4 µM, the Activity (KB-V1 [12]) was “inactive” and the Activity (HepG2 [13]) was “inactive”. The Activity (HepG2 [14]) was “inactive”, the Activity (K562 [15]) was “Active” and the Activity (K562 [16]) was “inactive”. For the same compound, the Activity (HepG2 [17]) was “Active”, the IC50 [18] was 61.7 µM and the Activity (HepG2 [19]) was “inactive”. For the same compound, the IC50 (K562 [7]) was 70 µM, the IC50 [20] was 32.3 µM and the Activity (K562 [21]) was “inactive”.
In the case of CC1(C)Oc2ccc3ccc(=O)oc3c2C(OC(=O)/C=C/c2ccccc2)C1OC(=O)/C=C/c1ccccc1 (racemic), the Activity (K562 [22]) is reported as 100%, the Activity (HepG2 [23]) is reported as 50% and the Activity (K562 [15]) is reported as “Active”. For the same compound, the Activity (HepG2 [24]) was 100%, the Activity (HepG2 [17]) was “inactive” and the Activity (K562 [25]) was 20%.
COc1ccc(CC(N)C(=O)N[C@H]2[C@@H](O)[C@H](n3cnc4c(N(C)C)ncnc43)O[C@@H]2CO)cc1 (single isomer, unassigned) [PUROMYCIN] showed an IC50 (HepG2 [4]) of 83.9 µM, an IC50 (HepG2 [5]) of 230 nM and an IC50 (K562 [6]) of 0.22 µM. It also gave an IC50 [18] of 0.21 µM, an IC50 (K562 [7]) of 26.8 µM and an IC50 [20] of 79.3 µM.
In the case of COc1cccc2c1C(=O)c1c(O)c3c(c(O)c1C2=O)C[C@@](O)(C(=O)CO)C[C@@H]3O[C@H]1C[C@H](N)[C@H](O)[C@H](C)O1 [DOXORUBICIN], the IC50 [18] is reported as 0.18 µM and the IC50 [20] is reported as 32 µM.
Compound CC(=O)O[C@H]1C(=O)[C@@]2(C)[C@H]([C@H](OC(=O)c3ccccc3)[C@]3(O)C[C@H](OC(=O)[C@H](O)[C@@H](NC(=O)c4ccccc4)c4ccccc4)C(C)=C1C3(C)C)[C@]1(OC(C)=O)CO[C@@H]1C[C@@H]2O [PACLITAXEL] has an IC50 (HepG2 [4]) of 4.15 µM, an IC50 (HepG2 [5]) of 7 nM and an IC50 [18] of 0.002 µM. For the same compound, the IC50 (K562 [7]) was 4.14 µM and the IC50 [20] was 8 µM.
CC[C@]1(O)C[C@@H]2CN(CCc3c([nH]c4ccccc34)[C@@](C(=O)OC)(c3cc4c(cc3OC)N(C)[C@H]3[C@@](O)(C(=O)OC)[C@H](OC(C)=O)[C@]5(CC)C=CCN6CC[C@]43[C@@H]65)C2)C1 [VINBLASTINE] showed an IC50 (HepG2 [4]) of 0.44 µM, an IC50 (HepG2 [5]) of 0.07 nM and an IC50 (K562 [6]) of 0.00088 µM. The IC50 [18] was 0.00011 µM, the IC50 (K562 [7]) was 0.17 µM and the IC50 [20] was 1.04 µM.
